Experiment [1] addresses Protein farnesyltransferase (Homo sapiens, UniProt P49354+P49356). The experiment can be described thus: Inhibition of human FTase using farnesyl pyrophosphate as substrate by fluorescent assay. In kind it is protein-complex assay.
The next experiment deals with MCF7. The experiment in a line: Cytotoxicity against human MCF7 cells after 48 hrs by MTT assay. Type of experiment: functional, cell-based. The settings on record: MCF7, 48 h.

Structures are written as SMILES.

This passage reports IC50 results from ChEMBL document CHEMBL3132843, “Discovery of novel inhibitors for human farnesyltransferase (hFTase) via structure-based virtual screening” (Medchemcomm, 2013).

A word on the IC50: it is the midpoint of a concentration-inhibition curve. The low end stands for greater potency, the high end for weaker potency.

As for `Cc1c(Cc2ccccc2)sc(CC(=O)CCC(=O)O)c1C(N)=O`, the IC50 in experiment [1] was 3.52 µM; in the experiment with MCF7, greater than 100 µM.
Taken in the same sequence, the figures for `Cc1ccc(Oc2ncccc2NC(=O)CCCC(=O)O)c2c1CCC2` were 5.4 µM and greater than 100 µM.
The like results for `O=C(c1ccc(Cl)cc1)N1N=C(c2c(-c3ccccc3)c3cc(Br)ccc3[nH]c2=O)CC1c1ccco1` (stereo unspecified) were, in that order, 0.52 µM and 32.2 µM.
The like results for `CCOC(=O)c1c(C)oc2c1cc(NS(=O)(=O)c1ccc(C(=O)O)cc1)c1ccccc12` were, in that order, 3.89 µM and 46.7 µM.
Take `CC1=NN(c2ccccc2)C(=O)/C1=C/c1ccccc1OCc1ccc(C(=O)O)cc1`: the figures for the half-inhibitory concentration (IC50) (in experiment [1]; with MCF7) were 2.58 µM and 38.9 µM, respectively.
Taken in the same sequence, the figures for `Cc1ccc(OC(=O)c2ccc3c(c2)C(=O)N(c2cccc4ccccc24)C3=O)cc1` were 0.44 µM and greater than 100 µM.
Take `Cc1cncc(NC(c2cccc(OCc3ccccc3)c2)c2ccc3cccnc3c2O)c1` (stereo unspecified): the figures for the IC50 (in experiment [1]; in the experiment with MCF7) were 0.0489 µM and 14.3 µM, respectively.
The like results for `O=C(O)C1CCCCC1C(=O)Nc1ccc(Oc2ccccc2)cc1` (stereo unspecified) were, in that order, 3.56 µM and greater than 100 µM.
The like results for `CCN(CC)c1ccc(/C=N/Nc2nc(NCc3ccco3)nc(Nc3ccc(OC)cc3)n2)c(OCc2ccc(Cl)cc2Cl)c1` were, in that order, 0.0515 µM and greater than 100 µM.
For `Oc1cccc2ccc(/C=C/c3ccccc3OCc3ccccc3Cl)nc12`, the IC50 is 0.0119 µM in experiment [1] and greater than 100 µM in the experiment with MCF7.
The like results for `COc1ccc(-c2cc(C(=O)OCC(=O)c3cccc4ccccc34)c3ccccc3n2)cc1` were, in that order, 0.37 µM and greater than 100 µM.
In the case of `O=C(N/N=C\c1cn(Cc2ccc([N+](=O)[O-])cc2)c2ccccc12)c1cc2ccccc2o1`, the IC50 in experiment [1] is 0.14 µM; in the experiment on MCF7 it was greater than 100 µM.
Taken in the same sequence, the figures for `O=C(c1ccccc1)c1ccc(/N=C/c2cc([N+](=O)[O-])ccc2O)cc1` were 11 µM and greater than 100 µM.
Taken in the same sequence, the figures for `COc1cc(/C=C2\S/C(=N\c3ccccc3)N(Cc3ccco3)C2=O)ccc1OC(C)C(=O)O` (stereo unspecified) were 5.14 µM and greater than 100 µM.
For `Cn1cncc1[C@@](N)(c1ccc(Cl)cc1)c1ccc2c(c1)c(-c1cccc(Cl)c1)cc(=O)n2C` [TIPIFARNIB], the IC50 amounted to 0.003 µM in experiment [1] and 3.08 µM with MCF7.
The like results for `O=C(O)c1ccc(/N=[N+](/[O-])c2ccccc2Sc2ccccc2C(=O)O)cc1Sc1ccccc1O` were, in that order, 3.22 µM and greater than 100 µM.
Taken in the same sequence, the figures for `COc1cccc(C2C(C(=O)/C=C/c3ccccc3)=C(O)C(=O)N2c2ccccc2)c1` (stereo unspecified) were 1.46 µM and greater than 100 µM.
For `Oc1ccc(NCc2cc(Cl)ccc2OCc2ccccc2F)cc1`, the figures for the IC50 (in experiment [1]; with MCF7) were 4.21 µM and 12.2 µM, respectively.
The like results for `Cc1ccc(Oc2ncccc2NC(=O)CC(CC(=O)O)c2ccccc2)c2c1CCC2` (stereo unspecified) were, in that order, 13.3 µM and greater than 100 µM.
The like results for `Cc1cccc(Oc2ccc(NC(=O)c3ccccc3C(=O)O)cc2)c1C` were, in that order, 6.9 µM and greater than 100 µM.
`N#Cc1c(SCc2ccc(C(=O)O)cc2)nc2c(c1-c1ccccc1)CCC2`: the IC50 in experiment [1] is 5.6 µM; with MCF7 it was greater than 100 µM.
As for `COCCN1C(=O)C(O)=C(C(=O)c2ccc(C)cc2)C1c1cccc(Oc2ccccc2)c1` (stereo unspecified), the IC50 in experiment [1] was 8.8 µM; with MCF7 it was greater than 100 µM.
Taken in the same sequence, the figures for `COc1cc(CNc2ccc(O)cc2)cc(Cl)c1OCc1ccc(Cl)cc1` were 2.57 µM and 20.5 µM.
